This test has as its target T1, BCL6 (Homo sapiens, UniProt P41182).
T1 construct: endogenous in cells; host or cells: T47D breast cancer epithelial cells
In words: Immunofluorescence protocol for high content imaging of BCL6 (degradation) in T47D cells, 3 days compound treatment. In kind it is cell-based. The note with it: T47D cells, 3 days compound treatment; for DC50: read-out: Mean DC50 (nM)* category; for Dmax: read-out: Mean Dmax (%)** category. The method in brief: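 T47D, RPMI1640/10% FBS; cpd 11-pt 3-fold, top 0.1 or 1 μM final; 3 d, 37° C. Fix 4% PFA, perm 0.1% Triton, block 3% BSA; anti-BCL6 1:300 o/n 4° C; Alexa-488 2°, CellMask-647, Hoechst. Imaged 10×, 4 fields/well.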

A word on the DC50: it is the midpoint of the concentration-degradation curve. A word on the Dmax: it is the greatest extent of degradation seen.

Regarding `CNC(=O)COc1cc2cc(Nc3nc(N4CCC(CN5CCC6(CC5)CC(c5ccc7c(c5)C(=O)N(C5CCC(=O)NC5=O)C7=O)C6)CC4)ncc3Cl)ccc2n(C(C)C)c1=O` (centres unmarked) [Compound 150, 2-{[6-({5-chloro-2-[4-({2-[2-(2,6-dioxopiperidin-3-yl)-1,3-dioxo-2,3-dihydro-1H-isoindol-5-yl]-7-azaspiro[3.5]nonan-7-yl}methyl)piperidin-1-yl]pyrimidin-4-yl}amino)-2-oxo-1-(propan-2-yl)-1,2-dihydroquinolin-3-yl]oxy}-N-methylacetamide], the DC50 lay within 10 to 50 nM and the Dmax lay in the range of 50 to 70%.

For `CNC(=O)COc1cc2cc(Nc3nc(N4CCC(F)(CN5CCC6(CC5)CCN(c5c(F)ccc7c5CN(C5CCC(=O)NC5=O)C7=O)CC6)CC4)ncc3Cl)ccc2n(C(C)C)c1=O` (centres unmarked) [Compound 151, 2-{[6-({5-chloro-2-[4-({9-[2-(2,6-dioxopiperidin-3-yl)-5-fluoro-1-oxo-2,3-dihydro-1H-isoindol-4-yl]-3,9-diazaspiro[5.5]undecan-3-yl}methyl)-4-fluoropiperidin-1-yl]pyrimidin-4-yl}amino)-2-oxo-1-(propan-2-yl)-1,2-dihydroquinolin-3-yl]oxy}-N-methylacetamide], the DC50 is below 10 nM and the Dmax was in the range of 50 to 70%.

In the case of `CNC(=O)COc1cc2cc(Nc3nc(N4CCC5(CCN(CC6(F)CCN(c7c(F)ccc8c7C(=O)N(C7CCC(=O)NC7=O)C8)CC6)CC5)CC4)ncc3Cl)ccc2n(C(C)C)c1=O` (centres unmarked) [Compound 152, 2-{[6-({5-chloro-2-[9-({1-[2-(2,6-dioxopiperidin-3-yl)-5-fluoro-3-oxo-2,3-dihydro-1H-isoindol-4-yl]-4-fluoropiperidin-4-yl}methyl)-3,9-diazaspiro[5.5]undecan-3-yl]pyrimidin-4-yl}amino)-2-oxo-1-(propan-2-yl)-1,2-dihydroquinolin-3-yl]oxy}-N-methylacetamide], the DC50 lay in the range of 10 to 50 nM.

Regarding `CNC(=O)COc1cc2cc(Nc3nc(N4CCC(O[C@H]5C[C@@H](N6CCC(c7ccc8c(c7)C(=O)N(C7CCC(=O)NC7=O)C8=O)CC6)C5)CC4)ncc3Cl)ccc2n(C(C)C)c1=O` (some centres unmarked) [Compound 153, 2-({6-[(5-chloro-2-{4-[(1s,3s)-3-{4-[2-(2,6-dioxopiperidin-3-yl)-1,3-dioxo-2,3-dihydro-1H-isoindol-5-yl]piperidin-1-yl}cyclobutoxy]piperidin-1-yl}pyrimidin-4-yl)amino]-2-oxo-1-(propan-2-yl)-1,2-dihydroquinolin-3-yl}oxy)-N-methylacetamide], the 50% degradation concentration (DC50) lay within 50 to 100 nM and the Dmax is below 50%.

Take `CNC(=O)COc1cc2cc(Nc3nc(N4CCC5(CC4)CC(C(C)(C)N4CCC(c6cccc7c6CN(C6CCC(=O)NC6=O)C7=O)CC4)C5)ncc3Cl)ccc2n(C(C)C)c1=O` (centres unmarked) [Compound 154, 2-{[6-({5-chloro-2-[2-(2-{4-[2-(2,6-dioxopiperidin-3-yl)-1-oxo-2,3-dihydro-1H-isoindol-4-yl]piperidin-1-yl}propan-2-yl)-7-azaspiro[3.5]nonan-7-yl]pyrimidin-4-yl}amino)-2-oxo-1-(propan-2-yl)-1,2-dihydroquinolin-3-yl]oxy}-N-methylacetamide]: the half-maximal degradation concentration (DC50) is at least 100 nM and the Dmax fell in the range of 50 to 70%.

For the compound `CNC(=O)COc1cc2cc(Nc3nc(N4CCN(CC5C6CN(c7ccc8c(c7)C(=O)N(C7CCC(=O)NC7=O)C8=O)CC56)CC4)ncc3Cl)ccc2n(C(C)C)c1=O` (centres unmarked) [Compound 155, 2-{[6-({5-chloro-2-[4-({3-[2-(2,6-dioxopiperidin-3-yl)-1,3-dioxo-2,3-dihydro-1H-isoindol-5-yl]-3-azabicyclo [3.1.0]hexan-6-yl}methyl)piperazin-1-yl]pyrimidin-4-yl}amino)-2-oxo-1-(propan-2-yl)-1,2-dihydroquinolin-3-yl]oxy}-N-methylacetamide], the DC50 was below 10 nM and the Dmax was below 50%.

The values above are taken from patent US11986532B2 (Arvinas Operations, Inc., priority 2021, dated 2024).
